Experimental data reported in patent US12503438B2, “Compounds for the treatment of kinase-dependent disorders” (Exelixis, Inc., priority 2019, dated 2025).

Key:
Mer = target: T1, Mer (Homo sapiens, UniProt Q12866); assay: Mer autophosphorylation ELISA in transient transfected 293A cells; assay type: cell-based; settings: cellular activity; MERTK-transfected 293A cells, phospho-Mer ELISA
T1 construct: host or cells: 293A cells (Thermo Fisher #R70507)
T1 sequence (Q12866 21-999): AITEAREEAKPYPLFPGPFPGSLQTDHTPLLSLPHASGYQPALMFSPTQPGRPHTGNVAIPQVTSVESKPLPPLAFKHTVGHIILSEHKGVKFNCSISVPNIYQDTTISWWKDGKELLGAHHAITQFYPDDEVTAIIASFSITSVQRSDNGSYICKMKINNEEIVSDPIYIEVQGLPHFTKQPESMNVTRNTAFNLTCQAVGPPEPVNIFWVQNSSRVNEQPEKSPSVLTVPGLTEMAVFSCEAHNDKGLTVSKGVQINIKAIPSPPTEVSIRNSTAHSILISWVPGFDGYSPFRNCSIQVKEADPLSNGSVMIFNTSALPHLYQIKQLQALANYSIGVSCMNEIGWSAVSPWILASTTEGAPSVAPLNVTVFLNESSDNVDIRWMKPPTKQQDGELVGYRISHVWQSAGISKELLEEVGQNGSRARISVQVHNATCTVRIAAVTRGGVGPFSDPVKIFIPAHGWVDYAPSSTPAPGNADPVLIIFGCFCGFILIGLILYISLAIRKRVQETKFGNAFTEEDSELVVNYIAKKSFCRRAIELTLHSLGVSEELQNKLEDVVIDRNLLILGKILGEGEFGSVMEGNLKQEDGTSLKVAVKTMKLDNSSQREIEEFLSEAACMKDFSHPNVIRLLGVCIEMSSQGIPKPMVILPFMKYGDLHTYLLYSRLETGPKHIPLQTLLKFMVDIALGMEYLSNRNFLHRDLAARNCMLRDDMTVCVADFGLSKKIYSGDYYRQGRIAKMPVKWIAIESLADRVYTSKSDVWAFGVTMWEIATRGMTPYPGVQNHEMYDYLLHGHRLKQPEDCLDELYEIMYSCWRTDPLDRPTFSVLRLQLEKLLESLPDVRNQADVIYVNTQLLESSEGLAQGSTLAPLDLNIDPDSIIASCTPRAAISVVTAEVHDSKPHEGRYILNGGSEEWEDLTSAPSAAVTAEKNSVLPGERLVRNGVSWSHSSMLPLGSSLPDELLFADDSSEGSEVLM
Protocol: 293A cells (Thermo Fisher #R70507) were seeded at 1.5×10^6 cells/well onto 100 mm dish (Greiner #664169), in DMEM (Thermo Fisher #11995-040) containing 10% FBS (Thermo Fisher #26140-079), 1% MEM NEAA (Thermo Fisher #11140-050), 1% GlutaMax (Thermo Fisher #35050-061), and 1% Penicillin Streptomycin (Thermo Fisher #15140-122). 293A cells were incubated at 37° C., 5% CO2 for 24 h and then transfected with 6 μg MERTK DNA (Genecopoeia #EX-Z8208-M02) using TransIT LT1 transfection reagent (Mirus-Bio #MIR2305). After 24 h incubation, the transfected 293A cells were seeded at 1×10^5 cells/well onto 96-well plates (Corning #3904) in DMEM growth medium overnight. Test compounds were serially diluted to produce an 8-point dose curve in fresh serum-free medium to a final concentration of 0.3% DMSO (vehicle) and added to the cells and incubated for 1 h. Cells were then immediately lysed with 150 μL of cold 1× lysis buffer [20 mM Tris, 137 mM sodium chloride, 2 mM EDTA, 10% glycerol, 1% NP-40 alternative, 1 mM activated sodium orthovanadate, 1 mM PefaBloc SC (Sigma-Aldrich #11429868001), protease/phosphatase inhibitor tablet (Thermo Fisher #A32959)]. Lysates were clarified by centrifugation and 50 μL/well added into the human phospho-Mer DuoSet IC ELISA (R&D Systems #DYC2579-2). Assay was performed according to manufacturer's instructions and sample phospho-Mer concentrations were extrapolated using human phospho-Mer control (R&D Systems #841793) as a standard. Positive control wells (100% activity) contained DMSO-treated cell lysates. Negative control wells (0% activity) contained reference inhibitor-treated cell lysates. IC50 values were calculated by nonlinear regression analysis using a 4-parameter logistic curve fit in ActivityBase XE (IDBS).

Human Mer = target: T2, Human Mer (Homo sapiens, UniProt Q12866); assay: Human Mer kinase assay (33P-phosphoryl transfer radiometric, KinaseProfiler); settings: biochemical activity; 10 μM ATP
T2 construct: Human Mer (residues R557-E882 with H628Q and R794A, 0.7 nM); purchased Eurofins Pharma Discovery Services UK Limited (KinaseProfiler service)
T2 sequence (Q12866 557-882 limits assumed): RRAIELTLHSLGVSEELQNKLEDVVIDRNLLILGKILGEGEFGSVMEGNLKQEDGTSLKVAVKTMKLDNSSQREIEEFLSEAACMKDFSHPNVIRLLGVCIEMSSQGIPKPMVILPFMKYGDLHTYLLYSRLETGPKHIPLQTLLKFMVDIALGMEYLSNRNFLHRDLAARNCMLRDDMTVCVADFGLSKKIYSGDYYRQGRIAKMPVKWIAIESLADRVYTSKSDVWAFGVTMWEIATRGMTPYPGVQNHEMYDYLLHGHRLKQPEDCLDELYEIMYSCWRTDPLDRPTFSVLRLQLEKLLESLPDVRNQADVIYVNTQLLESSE
Protocol: Kinase activity and compound inhibition were investigated using the ^33P-Phosphoryl transfer radiometric kinase assay, performed using the KinaseProfiler™ service of Eurofins Pharma Discovery Services UK Limited. Dose-response experiments were performed using nine compound concentrations in a 96-well microtiter plate. For each assay, all compounds were prepared to a 50× final assay concentration (50 μM) in 100% DMSO, then diluted in a half-log series, with the final top concentration at 1 μM. This working stock of the compound was added to the assay well as the first component in the reaction, followed by the remaining components as detailed in the following assay protocols below. The positive control wells (100% kinase activity) contain all components of the reaction including 2% DMSO (control for solvent effects), except the compound of interest. Blank wells contain all components of the reaction, with the reference inhibitor, staurosporine. This reference compound was used to abolish kinase activity and generated the 0% kinase activity base-line. IC50 values were calculated by nonlinear regression analysis using the sigmoidal dose-response (variable slope) curve fit on XLFit version 5.3 (ID Business Solutions).
Human Mer (residues R557-E882 with H628Q and R794A, 0.7 nM) was incubated with 8 mM MOPS pH 7.0, 0.2 mM EDTA, 30 mM NaCl, 250 μM GGMEDIYFEFMGGKKK, 10 mM magnesium acetate and 10 μM [y-^33P-ATP]. The reaction was initiated by the addition of the Mg/ATP mix. After incubation for 40 minutes at room temperature, the reaction was stopped by the addition of phosphoric acid to a concentration of 0.5%. A reaction aliquot of 10 μL was then spotted onto a P30 filtermat and washed four times for 4 minutes in 0.425% phosphoric acid and once in methanol prior to drying and scintillation counting. Incorporated ^33P was measured using the Wallac Microbeta scintillation counter (Perkin Elmer).

Compound	IC50 (Mer) [nM]	IC50 (Human Mer) [nM]
O=C(Nc1ccc(F)cc1)C1(C(=O)Nc2ccc(Oc3ccnc4cc(-c5cnn(CC(F)(F)F)c5)ccc34)cc2)CC1 [Compound 16, 1-N′-(4-Fluorophenyl)-1-N-[4-[7-[1-(2,2,2-trifluoroethyl)pyrazol-4-yl]quinolin-4-yl]oxyphenyl]cyclopropane-1,1-dicarboxamide]	10 to 100	≤ 10
CC(C)(C)n1cc(-c2ccc3c(Oc4ccc(NC(=O)C5(C(=O)Nc6ccc(F)cc6)CC5)cc4)ccnc3c2)cn1 [Compound 23, 1-N-[4-[7-(1-tert-Butylpyrazol-4-yl)quinolin-4-yl]oxyphenyl]-1-N′-(4-fluorophenyl)cyclopropane-1,1-dicarboxamide]	10 to 100	≤ 10
O=C(Nc1ccc(F)cc1)C1(C(=O)Nc2ccc(Oc3ccnc4cc(-c5ccncc5)ccc34)cc2)CC1 [Compound 26, 1-N′-(4-Fluorophenyl)-1-N-[4-(7-pyridin-4-ylquinolin-4-yl)oxyphenyl]cyclopropane-1,1-dicarboxamide]	10 to 100	≤ 10
O=C(Nc1ccc(F)cc1)C1(C(=O)Nc2ccc(Oc3ccnc4cc(-c5cnn(C(F)F)c5)ccc34)cc2)CC1 [Compound 13, 1-N-[4-[7-[1-(Difluoromethyl)pyrazol-4-yl]quinolin-4-yl]oxyphenyl]-1-N′-(4-fluorophenyl)cyclopropane-1,1-dicarboxamide]	10 to 100	≤ 10
CN1CCC(n2cc(-c3ccc4c(Oc5ccc(NC(=O)C6(C(=O)Nc7ccc(F)cc7)CC6)cc5)ccnc4c3)cn2)CC1 [Compound 61, 1-N′-(4-Fluorophenyl)-1-N-[4-[7-[1-(1-methylpiperidin-4-yl)pyrazol-4-yl]quinolin-4-yl]oxyphenyl]cyclopropane-1,1-dicarboxamide]	≤ 10	≤ 10
Cn1nccc1-c1ccc2c(Oc3ccc(NC(=O)C4(C(=O)Nc5ccc(F)cc5)CC4)cc3)ccnc2c1 [Compound 54, 1-N′-(4-Fluorophenyl)-1-N-[4-[7-(2-methylpyrazol-3-yl)quinolin-4-yl]oxyphenyl]cyclopropane-1,1-dicarboxamide]	10 to 100	≤ 10
COCCn1cc(-c2ccc3c(Oc4ccc(NC(=O)C5(C(=O)Nc6ccc(F)cc6)CC5)cc4)ccnc3c2)cn1 [Compound 10, 1-N′-(4-Fluorophenyl)-1-N-[4-[7-[1-(2-methoxyethyl)pyrazol-4-yl]quinolin-4-yl]oxyphenyl]cyclopropane-1,1-dicarboxamide]	≤ 10	≤ 10
O=C(Nc1ccc(F)cc1)C1(C(=O)Nc2ccc(Oc3ccnc4cc(-c5ccn[nH]5)ccc34)cc2)CC1 [Compound 68, 1-N′-(4-Fluorophenyl)-1-N-[4-[7-(1H-pyrazol-5-yl)quinolin-4-yl]oxyphenyl]cyclopropane-1,1-dicarboxamide]	10 to 100	≤ 10

More lines, now with the values ahead:

IC50 (Mer) [nM]	IC50 (Human Mer) [nM]	Compound
10 to 100	≤ 10	Cn1ccnc1-c1ccc2c(Oc3ccc(NC(=O)C4(C(=O)Nc5ccc(F)cc5)CC4)cc3)ccnc2c1 [Compound 75, 1-N′-(4-Fluorophenyl)-1-N-[4-[7-(1-methylimidazol-2-yl)quinolin-4-yl]oxyphenyl]cyclopropane-1,1-dicarboxamide]
100 to 300	≤ 10	O=C(Nc1ccc(F)cc1)C1(C(=O)Nc2ccc(Oc3ccnc4cc(C5CCNC5)ccc34)cc2)CC1 (centres unmarked) [Compound 83, 1-N′-(4-Fluorophenyl)-1-N-[4-(7-pyrrolidin-3-ylquinolin-4-yl)oxyphenyl]cyclopropane-1,1-dicarboxamide]
100 to 300	10 to 100	Cn1cc(-c2ccc3c(Oc4ccc(NC(=O)C5(C(=O)N6CCc7cc(F)ccc76)CC5)cc4)ccnc3c2)cn1 [Compound 81, 1-(5-Fluoro-2,3-dihydroindole-1-carbonyl)-N-[4-[7-(1-methylpyrazol-4-yl)quinolin-4-yl]oxyphenyl]cyclopropane-1-carboxamide]
≤ 10	≤ 10	O=C(Nc1ccc(F)cc1)C1(C(=O)Nc2ccc(Oc3ccnc4cc(-c5cnc[nH]5)ccc34)cc2)CC1 [Compound 72, 1-N′-(4-Fluorophenyl)-1-N-[4-[7-(1H-imidazol-5-yl)quinolin-4-yl]oxyphenyl]cyclopropane-1,1-dicarboxamide]
10 to 100	≤ 10	O=C(Nc1ccc(F)cc1)C1(C(=O)Nc2ccc(Oc3ccnc4cc(-c5ccccn5)ccc34)cc2)CC1 [Compound 85, 1-N′-(4-Fluorophenyl)-1-N-[4-(7-pyridin-2-ylquinolin-4-yl)oxyphenyl]cyclopropane-1,1-dicarboxamide]
10 to 100	≤ 10	O=C(Nc1ccc(F)cc1)C1(C(=O)Nc2ccc(Oc3ccnc4cc(-c5nnco5)ccc34)cc2)CC1 [Compound 73, 1-N′-(4-Fluorophenyl)-1-N-[4-[7-(1,3,4-oxadiazol-2-yl)quinolin-4-yl]oxyphenyl]cyclopropane-1,1-dicarboxamide]
10 to 100	≤ 10	Cn1cnc(-c2ccc3c(Oc4ccc(NC(=O)C5(C(=O)Nc6ccc(F)cc6)CC5)cc4)ccnc3c2)c1 [Compound 69, 1-N′-(4-Fluorophenyl)-1-N-[4-[7-(1-methylimidazol-4-yl)quinolin-4-yl]oxyphenyl]cyclopropane-1,1-dicarboxamide]
> 300	100 to 1000	CC1Cc2cc(F)ccc2N1C(=O)C1(C(=O)Nc2ccc(Oc3ccnc4cc(-c5cnn(C)c5)ccc34)cc2)CC1 (centres unmarked) [Compound 80, 1-(5-Fluoro-2-methyl-2,3-dihydroindole-1-carbonyl)-N-[4-[7-(1-methylpyrazol-4-yl)quinolin-4-yl]oxyphenyl]cyclopropane-1-carboxamide]
